What was measured:
[1] = tested on: PMH from Npc1+/+ mice; experiment: Filipin and cytochrome c co-staining, confocal microscopy (mitochondrial cholesterol); type: cell-based, mouse; conditions: 16 hours
Method: (§1) PMH were isolated by collagenase perfusion at a flow rate of 7-9ml/min and cultured at a density of 2×10^5 cells in 12-well plates coated with rat tail collagen. Hepatocytes were cultured in DMEM/F12 culture media (Gibco, 21331-020) supplemented with 10% FBS for the first 3 hours post isolation, together with 10.000U/ml Penicillin-Streptomycin (Gibco, 15140-122), 200mM L-Glutamine (Gibco, 25030-024), 7.5mM D-Glucose (Sigma, G6152) and 150mM Hepes pH 7.4 (Sigma,). For subsequent treatments, FBS was replaced for 1mM methionine (Sigma, M5308).
(§2) PMH from Npc1^+/+ and human Npc^+/+ control fibroblasts were treated with U18666A (2µg/ml) or HMβCD (2mM) for 16 hours. In some other cases, PMH from Npc1^-/- and Npc^-/- fibroblast from NPC patients were treated with HMβCD as above for control PMH.
(§3) PMH were fixed for 15min with 3.7% paraformaldehyde and permeabilized for 5min with 0.2% saponin dissolved in 0.5% BSA-fatty acid free (FAF) in PBS commercial buffer. Cells were blocked with 1% BSA FAF for 15minutes. Cytochrome c (Cytc) (BD Pharmigen, #556432) and Lamp2 (Abcam, #ab13524) primary antibodies were incubated overnight in BSA 1% followed by a secondary antibody for 1 hour at room temperature in BSA 0.1%. Filipin ([…], Sigma) was added during the secondary antibody incubation and the following steps were performed in the dark. Stained samples were embedded in fluoromont (Sigma) and digital images were taken in a Leica SP2 laser scanning confocal microscope equipped with UV excitation, an argon laser, a 633/1.32 OIL PH3 CS objective and a confocal pinhole set at 1 Airy unit. All the confocal images shown were single optical sections. Scale bar represents 25 µm. Percentage of cholesterol mass containing mitochondria was analyzed with the Colocalization nBits nimages plugin (Confocal Microscopy Unit, Facultad de Medicina, Universidad de Barcelona) in the ImageJ Software in 5 consecutive images of each experimental condition.

[2] = tested on: PMH from Npc1-/- mice; experiment: as above; type: cell-based, mouse; conditions: HMβCD 2mM, 16 hours
Method: as §1, §2, §3

[3] = tested on: Npc+/+ fibroblasts; experiment: as above; type: cell-based, human; conditions: HMβCD 2mM, 16 hours, co-treatment with U18666A; Npc+/+ fibroblasts from control patients
Method: (§4) Fibroblasts from patients with NPC disease used have been previously described (Torres et al., Redox Biol. 2017 Apr;11:60-72). Briefly, cultured human skin fibroblasts from control individuals (HSF; GM5659D) and patients with NPC disease were a generous gift from Thierry Levade, Laboratoire de Biochimie Metabolique, Institut Federatif de Biologie (CHU Toulouse, France) or obtained from Coriell Institute for Medical Research (GM03123, NJ, USA) and were grown at 37°C in 5% CO2. DMEM (Gibco) culture medium was supplemented with 10% fetal bovine serum (FBS, Gibco, 10-270-106) and 10.000U/ml Penicillin-Streptomycin (Gibco, 15140-122).
as §2
(§5) PMH were fixed for 15min with 3.7% paraformaldehyde and permeabilized for 5min with 0.2% saponin dissolved in 0.5% BSA-fatty acid free (FAF) in PBS commercial buffer. Cells were blocked with 1% BSA FAF for 15minutes. […] Percentage of cholesterol mass containing mitochondria was analyzed with the Colocalization nBits nimages plugin (Confocal Microscopy Unit, Facultad de Medicina, Universidad de Barcelona) in the ImageJ Software in 5 consecutive images of each experimental condition.

[4] = tested on: Npc-/- fibroblasts from NPC patients; experiment: as above; type: cell-based, human; conditions: HMβCD 2mM, 16 hours
Method: as §4
PMH from Npc1^+/+ and human Npc^+/+ control fibroblasts were treated with U18666A (2µg/ml) or HMβCD (2mM) for 16 hours. In some other cases, PMH from Npc1^-/- and Npc^-/- fibroblast from NPC patients were treated with HMβCD as above for control PMH. […]
PMH were fixed for 15min with 3.7% paraformaldehyde and permeabilized for 5min with 0.2% saponin dissolved in 0.5% BSA-fatty acid free (FAF) in PBS commercial buffer. […] Percentage of cholesterol mass containing mitochondria was analyzed with the Colocalization nBits nimages plugin (Confocal Microscopy Unit, Facultad de Medicina, Universidad de Barcelona) in the ImageJ Software in 5 consecutive images of each experimental condition.

[5] = tested on: STARD1; experiment: Western blot of STARD1 protein expression in primary mouse hepatocytes; type: cell-based; conditions: 16 hours
Method: as §2
(§6) 100mg of liver were homogenized with a pestle homogenizer in 1ml of homobuffer (70mM saccharose, 220mM mannitol, 2mM Tris-HCI pH 7.4, 0,1mM EDTA, 0.1% fatty acid free BSA) supplemented with protease and phosphatase inhibitors (Roche). Liver homogenates were diluted 4 times with RIPA lysis buffer (Sigma) with anti-proteases and anti-phosphatases. Cells were washed with PBS and lysed with ice-cold RIPA lysis buffer supplemented with protease and phosphatase inhibitors. Samples were incubated 15min at 4°C, vortexed and spinned down for 5min at 10000rpm. All supernatants were collected and quantified for protein concentration using Quick-Bradford reagent (Bio-Rad) and 20-50µg of protein were subjected to 4-12% SDS-polyacrylamide gel electrophoresis (SDS-PAGE) (Bio-Rad, XT-Criterion). Proteins were electrotransferred at 4°C onto Hybond ECL nitrocellulose membranes (Amersham) and 5% BSA solution in TBS-Tween was used to block the membranes for 1h at room temperature. Membranes were incubated overnight with the following primary antibodies: anti-PDI (Cell Signaling, 24465), anti-CHOP (Cell Signaling, 2895S), anti-Phospho eiF2A (Cell Signaling, 9721S), anti-eiF2A (Cell Signaling, 9722) and anti-STARD1 (Abcam, ab58013), anti-BIP (Stressgen, SPA826), anti-XBP1 (Santa Cruz, CS-8015) and anti-Mln64 (Santa Cruz SC-292868), ACDAse (Sigma, SAB3500293), LRH-1 (Santa Cruz, Cs-393369) and anti-β-Actin HRP-conjugated (Sigma, A3854). Membranes were thoroughly washed with TBS-Tween and incubated for 45min with their respective HRP-conjugated secondary antibodies. Pierce ECL Western Blotting Substrate (Thermo Scientific) was used to develop the membranes. Images were digitally captured by LAS4000 (GE Healthcare) and optical density was analyzed with ImageJ software.

[6] = tested on: STARD1; experiment: Western blot of STARD1 protein expression in human fibroblasts; type: cell-based; conditions: 16 hours
Method: as §2
(§7) Fibroblasts from NPC patients were transfected with cDNA to overexpress ACDase (ASAH1) (SEQ ID NO: 5; MGC Human ASAH1 Sequence-Verified cDNA Accession: BC016481 Clone ID: 3923451) commercially purchased from GE Dharmacon. Transfection was performed using Lipofectamine2000 (Invitrogen). Briefly, 250000 fibroblasts were incubated with the transfection mixtures containing 250ng of the sobrexpression ACDase vector or the scrambled control-GFP vector. Cells were assayed 48 h after transfection for mRNA and protein levels. SEQ ID NO: 5 >ENA|BC016481|BC016481.1 Homo sapiens N-acylsphingosine amidohydrolase (acid ceramidase) 1, mRNA (cDNA clone MGC:9327 IMAGE:3923451), complete cds. [formula] [formula] [formula]
(§8) 100mg of liver were homogenized with a pestle homogenizer in 1ml of homobuffer (70mM saccharose, 220mM mannitol, 2mM Tris-HCI pH 7.4, 0,1mM EDTA, 0.1% fatty acid free BSA) supplemented with protease and phosphatase inhibitors (Roche). Liver homogenates were diluted 4 times with RIPA lysis buffer (Sigma) with anti-proteases and anti-phosphatases. Cells were washed with PBS and lysed with ice-cold RIPA lysis buffer supplemented with protease and phosphatase inhibitors. Samples were incubated 15min at 4°C, vortexed and spinned down for 5min at 10000rpm. All supernatants were collected and quantified for protein concentration using Quick-Bradford reagent (Bio-Rad) and 20-50µg of protein were subjected to 4-12% SDS-polyacrylamide gel electrophoresis (SDS-PAGE) (Bio-Rad, XT-Criterion). Proteins were electrotransferred at 4°C onto Hybond ECL nitrocellulose membranes (Amersham) and 5% BSA solution in TBS-Tween was used to block the membranes for 1h at room temperature. […] Images were digitally captured by LAS4000 (GE Healthcare) and optical density was analyzed with ImageJ software.

[7] = tested on: MLN64; experiment: Western blot of MLN64 protein expression in primary mouse hepatocytes; type: cell-based; conditions: HMβCD 2mM, 16 hours, co-treatment with U18666A; PMH from Npc1+/+ mice
Method: as §2, §8

[8] = tested on: MLN64; experiment: Western blot of MLN64 protein expression in human fibroblasts; type: cell-based; conditions: HMβCD 2mM, 16 hours, co-treatment with U18666A; control Npc+/+ fibroblasts
Method: as §2
Fibroblasts from NPC patients were transfected with cDNA to overexpress ACDase (ASAH1) (SEQ ID NO: 5; MGC Human ASAH1 Sequence-Verified cDNA Accession: BC016481 Clone ID: 3923451) commercially purchased from GE Dharmacon. Transfection was performed using Lipofectamine2000 (Invitrogen). Briefly, 250000 fibroblasts were incubated with the transfection mixtures containing 250ng of the sobrexpression ACDase vector or the scrambled control-GFP vector. Cells were assayed 48 h after transfection for mRNA and protein levels. […]
100mg of liver were homogenized with a pestle homogenizer in 1ml of homobuffer (70mM saccharose, 220mM mannitol, 2mM Tris-HCI pH 7.4, 0,1mM EDTA, 0.1% fatty acid free BSA) supplemented with protease and phosphatase inhibitors (Roche). […] All supernatants were collected and quantified for protein concentration using Quick-Bradford reagent (Bio-Rad) and 20-50µg of protein were subjected to 4-12% SDS-polyacrylamide gel electrophoresis (SDS-PAGE) (Bio-Rad, XT-Criterion). […] Images were digitally captured by LAS4000 (GE Healthcare) and optical density was analyzed with ImageJ software.

[9] = tested on: ACDase; experiment: Western blot of ACDase protein expression in primary mouse hepatocytes; type: cell-based; conditions: 16 hours
Method: as §2, §6

[10] = tested on: ACDase; experiment: Western blot of ACDase protein expression in human fibroblasts; type: cell-based; conditions: 16 hours
Method: as §2, §7, §8

[11] = tested on: Npc1 gene-defective (Npc1-/-) mice; conditions: cited from earlier work
[12] = tested on: NPC child patients; conditions: intravenous instillation 2500 mg/kg per time, 1 to 3 times per week, more than 1 year; cited from earlier work
[13] = tested on: PMH from Npc1+/+ mice; experiment: Filipin and Lamp2 co-staining, confocal microscopy (lysosomal cholesterol); type: cell-based, mouse; conditions: U18666A 2µg/ml, 16 hours
Method: as §1, §2, §5

[14] = tested on: ER stress markers; experiment: Western blot of ER stress markers in primary mouse hepatocytes; type: cell-based; conditions: incubation of Npc1+/+ PMH with U18666A
Method: as §2, §8

[15] = HMβCD 2mM, co-treatment with U18666A, PMH from Npc1+/+ mice
[16] = HMβCD 2mM, PMH from Npc1-/- mice, no U18666A
[17] = HMβCD 2mM, co-treatment with U18666A, control Npc+/+ fibroblasts
[18] = HMβCD 2mM, Npc-/- fibroblasts from NPC patients, no U18666A
[19] = U18666A 2µg/ml, PMH from Npc1+/+ mice

CC(O)COC[C@H]1O[C@@H]2O[C@H]3[C@H](O)[C@@H](O)[C@@H](O[C@H]4[C@H](O)[C@@H](O)[C@@H](O[C@H]5[C@H](O)[C@@H](O)[C@@H](O[C@H]6[C@H](O)[C@@H](O)[C@@H](O[C@H]7[C@H](O)[C@@H](O)[C@@H](O[C@H]8[C@H](O)[C@@H](O)[C@@H](O[C@H]1[C@H](O)[C@H]2O)O[C@@H]8COCC(C)O)O[C@@H]7COCC(C)O)O[C@@H]6COCC(C)O)O[C@@H]5COCC(C)O)O[C@@H]4COCC(C)O)O[C@@H]3COCC(C)O (stereo partly drawn) [HMβCD, 2-hydroxypropyl-β-cyclodextrin]
U18666A-induced cholesterol accumulation and trafficking to mitochondria [1, 15]: prevented U18666A-induced cholesterol accumulation and trafficking to mitochondria
mitochondrial cholesterol increase [2]: exhibited the same changes induced by HMβCD
U18666A-induced cholesterol accumulation and trafficking to mitochondria [3]: prevented U18666A-induced cholesterol accumulation and trafficking to mitochondria
mitochondrial cholesterol increase [4]: exhibited the same changes induced by HMβCD
increase of STARD1 induced by U18666A [5, 15]: reverse the increase of STARD1
expression levels of STARD1 [5, 16]: exhibited the same changes induced by HMβCD
increase of STARD1 induced by U18666A [6, 17]: reverse the increase of STARD1
expression levels of STARD1 [6, 18]: exhibited the same changes induced by HMβCD
increased expression of MLN64 induced by U18666A [7]: prevented the increased expression of MLN64
increased expression of MLN64 induced by U18666A [8]: prevented the increased expression of MLN64
repression of ACDase induced by U18666A [9, 15]: reverse the increase of STARD1 and the repression of ACDase
expression levels of ACDase [9, 16]: exhibited the same changes induced by HMβCD
repression of ACDase induced by U18666A [10, 17]: reverse the increase of STARD1 and the repression of ACDase
expression levels of ACDase [10, 18]: exhibited the same changes induced by HMβCD
improving effect, direct administration into the brain compared with systemic administration ([11]; directly administered into the brain, Npc1-/- mice): increased a few hundred times
medical state or survival ([11]; intravenously administered, Npc1-/- mice): effective in improving the medical state or prolonging survival
crossing of the blood brain barrier ([11]; mouse, in vivo): inability of HPBCD to cross the blood brain barrier
nervous symptom [12]: saw no improvement
side effects [12]: severe side effects have been observed
splenomegaly and brain wave [12]: certain effect of reduction of splenomegaly and improvement in a brain wave

CCN(CC)CCO[C@H]1CC[C@@]2(C)C(=CC[C@@H]3[C@@H]2CC[C@]2(C)C(=O)CC[C@@H]32)C1 [U18666A]
lysosomal cholesterol accumulation (filipin and Lamp2 staining) [13]: significantly increased lysosomal cholesterol accumulation
accumulation of cholesterol in mitochondria (colocalization of filipin and CytC staining) ([1]; U18666A 2µg/ml, Npc1+/+ PMH): stimulated the accumulation of cholesterol in mitochondria
STARD1 expression [5, 19]: significantly increased STARD1
STARD1 expression ([6]; U18666A 2µg/ml, Npc+/+ fibroblasts): significantly increased STARD1
expression of ACDase [9, 19]: decreased the expression of ACDase
expression of ACDase ([10]; U18666A 2µg/ml, control Npc+/+ fibroblasts): decreased the expression of ACDase
ER stress markers [14]: failed to induce ER stress markers

— EP4014997A1, “STARD1 INHIBITORS FOR THE TREATMENT OF LYSOSOMAL DISORDERS” (Consejo Superior de Investigaciones Científicas (CSIC), priority 2020, dated 2022)
